Experimental data as given in PubChem BioAssay (NCI).
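Abbreviation: GI50, concentration required for 50% inhibition of growth. TGI marks complete inhibition of growth.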

Legend:
Assay in all cases: growth of human tumour cells (NCI), 384-well format
[1] = system: HCT-15 colon
[2] = system: NCI-H460 NSCLC
[3] = system: OVCAR-8 ovarian
[4] = system: DU-145 prostate
[5] = system: RXF 393 renal
[6] = system: OVCAR-5 ovarian
[7] = system: MALME-3M melanoma
[8] = system: SNB-19 CNS
[9] = system: SN12C renal
[10] = system: HCT-116 colon
[11] = system: HT29 colon
[12] = system: KM12 colon
[13] = system: RPMI-8226 leukemia
[14] = system: NCI/ADR-RES ovarian
[15] = system: COLO 205 colon
[16] = system: M14 melanoma
[17] = system: OVCAR-3 ovarian
[18] = system: A549 NSCLC
[19] = system: NCI-H322M lung
[20] = system: MOLT-4 leukemia
[21] = system: CAKI-1 renal
[22] = system: MDA-MB-435 melanoma
[23] = system: NCI-H23 lung
[24] = system: SK-MEL-5 melanoma
[25] = system: SF-295 CNS
[26] = system: HOP-62 NSCLC
[27] = system: SF-268 CNS
[28] = system: SW-620 colon
[29] = system: LOX IMVI melanoma
[30] = system: T-47D breast
[31] = system: K-562 leukemia
[32] = system: SF-539 CNS
[33] = system: SK-MEL-28 melanoma
[34] = system: MCF7 breast
[35] = system: U251 glioblastoma
[36] = system: NCI-H226 lung
[37] = system: CCRF-CEM leukemia
[38] = system: HOP-92 NSCLC
[39] = system: TK-10 renal
[40] = system: MDA-MB-231 breast
[41] = system: NCI-H522 lung
[42] = system: HL-60(TB) leukemia
[43] = system: SK-MEL-2 melanoma
[44] = system: OVCAR-4 ovarian
[45] = system: PC-3 prostate
[46] = system: SK-OV-3 ovarian
[47] = system: IGROV1 ovarian
[48] = system: UACC-257 melanoma
[49] = system: 786-0 renal
[50] = system: UACC-62 melanoma
[51] = system: ACHN renal
[52] = system: MDA-MB-468 breast
[53] = system: BT-549 breast
[54] = system: A498 renal
[55] = system: UO-31 renal
[56] = system: SR leukemia

CC(C)(/C=C(\C#N)C(=O)N1CCC[C@@H](n2nc(-c3ccc(Oc4ccccc4)cc3F)c3c(N)ncnc32)C1)N1CCN(C2COC2)CC1
GI50 [1]: 4.52 µM | TGI [1]: 15.1 µM | GI50 [2]: 1870 nM | TGI [2]: 3.72 µM | GI50 [3]: 5.91 µM | TGI [3]: 18 µM | GI50 [4]: 9.84 µM | TGI [4]: 29.1 µM | GI50 [5]: 1190 nM | TGI [5]: 3.04 µM | GI50 [6]: 10.5 µM | TGI [6]: 22.9 µM | GI50 [7]: 1280 nM | TGI [7]: 5.26 µM | GI50 [8]: 3.69 µM | TGI [8]: 12.1 µM | GI50 [9]: 2820 nM | TGI [9]: 7.62 µM | GI50 [10]: 2900 nM | TGI [10]: 10.6 µM | GI50 [11]: 1730 nM | TGI [11]: 3.48 µM | GI50 [12]: 712 nM | TGI [12]: 2470 nM | GI50 [13]: 1140 nM | TGI [13]: 2380 nM | GI50 [14]: 13.8 µM | TGI [14]: 27.1 µM | GI50 [15]: 1630 nM | TGI [15]: 5.8 µM | GI50 [16]: 2080 nM | TGI [16]: 5.29 µM | GI50 [17]: 289 nM | TGI [17]: 1600 nM | GI50 [18]: 3.55 µM | TGI [18]: 13.2 µM | GI50 [19]: 6.84 µM | TGI [19]: 23.2 µM | GI50 [20]: 157 nM | TGI [20]: 460 nM | GI50 [21]: 3.41 µM | TGI [21]: 9.34 µM | GI50 [22]: 55.1 nM | TGI [22]: 448 nM | GI50 [23]: 3.51 µM | TGI [23]: 9.62 µM | GI50 [24]: 1410 nM | TGI [24]: 2920 nM | GI50 [25]: 9.51 µM | TGI [25]: 21.5 µM | GI50 [26]: 2470 nM | TGI [26]: 5.82 µM | GI50 [27]: 2290 nM | TGI [27]: 7.3 µM | GI50 [28]: 1870 nM | TGI [28]: 3.63 µM | GI50 [29]: 2300 nM | TGI [29]: 4.09 µM | GI50 [30]: 2330 nM | TGI [30]: 11 µM | GI50 [31]: 1240 nM | TGI [31]: 2820 nM | GI50 [32]: 2080 nM | TGI [32]: 5.39 µM | GI50 [33]: 1860 nM | TGI [33]: 5.23 µM | GI50 [34]: 2280 nM | TGI [34]: 10.4 µM | GI50 [35]: 2600 nM | TGI [35]: 8.45 µM | GI50 [36]: 2180 nM | TGI [36]: 5.42 µM | GI50 [37]: 1490 nM | TGI [37]: 2860 nM | GI50 [38]: 1380 nM | TGI [38]: 3.76 µM | GI50 [39]: 6.64 µM | TGI [39]: 18.9 µM | GI50 [40]: 2540 nM | TGI [40]: 7.28 µM | GI50 [41]: 164 nM | TGI [41]: 1360 nM | GI50 [42]: 1500 nM | TGI [42]: 2890 nM | GI50 [43]: 85.7 nM | TGI [43]: 1080 nM | GI50 [44]: 1350 nM | TGI [44]: 7.72 µM | GI50 [45]: 3.73 µM | TGI [45]: 13.8 µM | GI50 [46]: 1230 nM | TGI [46]: 3000 nM | GI50 [47]: 2940 nM | TGI [47]: 9.69 µM | GI50 [48]: 1490 nM | TGI [48]: 3.81 µM | GI50 [49]: 3.07 µM | TGI [49]: 10.4 µM | GI50 [50]: 1120 nM | TGI [50]: 3.24 µM | GI50 [51]: 9.03 µM | TGI [51]: 21.2 µM | GI50 [52]: 239 nM | TGI [52]: 1160 nM | GI50 [53]: 1210 nM | TGI [53]: 2780 nM | GI50 [54]: 2390 nM | TGI [54]: 5.72 µM | GI50 [55]: 7.98 µM | TGI [55]: 20.3 µM | GI50 [56]: 37.8 nM | TGI [56]: 208 nM
